Laboratory results taken from publication PMC7180948, “New Insights into 4-Anilinoquinazolines as Inhibitors of Cardiac Troponin I–Interacting Kinase (TNNi3K)” (Molecules, 2020).

What was measured:
Assay in all cases: biochemical
Parameters in all cases: KINOMEscan competition binding panel (Eurofins DiscoverX), single concentration, percent inhibition
Details in all cases: read-out: 15 at 1 µM % inhibition
[1] = molecular target: PIK3CG (Homo sapiens, UniProt P48736)
Method in brief: (§1)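 KINOMEscan selectivity screen; >400 human kinases; compound at 1 µM, single concentration.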

[2] = molecular target: PIP5K1C (Homo sapiens, UniProt O60331)
Method in brief: as §1

[3] = molecular target: MAST1 (Homo sapiens, UniProt Q9Y2H9)
Method in brief: as §1

[4] = molecular target: STK33 (Homo sapiens, UniProt Q9BYT3)
Method in brief: as §1

[5] = molecular target: T1, CDC2L5 (Homo sapiens, UniProt Q14004)
T1 construct: gene CDK13
Method in brief: as §1

[6] = molecular target: TSSK1B (Homo sapiens, UniProt Q9BXA7)
Method in brief: as §1

[7] = molecular target: PIK3CA(E545K) (Homo sapiens, UniProt P42336, E545K)
Method in brief: as §1

[8] = molecular target: GRK2 (Homo sapiens, UniProt P25098)
Method in brief: as §1

[9] = molecular target: T2, YANK1 (Homo sapiens, UniProt Q8WU08)
T2 construct: gene STK32A
Method in brief: as §1

[10] = molecular target: MAP4K2 (Homo sapiens, UniProt Q12851)
Method in brief: as §1

[11] = molecular target: RET(V804L) (Homo sapiens, UniProt P07949, V804L)
Method in brief: as §1

[12] = molecular target: T3, ABL1(Y253F)-phosphorylated (Homo sapiens, UniProt P00519, Y253F)
T3 construct: phosphorylated
Method in brief: as §1

[13] = molecular target: EGFR(G719S) (Homo sapiens, UniProt P00533, G719S)
Method in brief: as §1

[14] = molecular target: INSRR (Homo sapiens, UniProt P14616)
Method in brief: as §1

[15] = molecular target: TBK1 (Homo sapiens, UniProt Q9UHD2)
Method in brief: as §1

[16] = molecular target: MARK1 (Homo sapiens, UniProt Q9P0L2)
Method in brief: as §1

[17] = molecular target: T4, PFTAIRE2 (Homo sapiens, UniProt Q96Q40)
T4 construct: gene CDK15
Method in brief: as §1

[18] = molecular target: T5, FAK (Homo sapiens, UniProt Q05397)
T5 construct: gene PTK2
Method in brief: as §1

[19] = molecular target: T6, AMPK-alpha1 (Homo sapiens, UniProt Q13131)
T6 construct: gene PRKAA1
Method in brief: as §1

[20] = molecular target: CSNK1G2 (Homo sapiens, UniProt P78368)
Method in brief: as §1

[21] = molecular target: SGK2 (Homo sapiens, UniProt Q9HBY8)
Method in brief: as §1

[22] = molecular target: SRC (Homo sapiens, UniProt P12931)
Method in brief: as §1

[23] = molecular target: EPHA3 (Homo sapiens, UniProt P29320)
Method in brief: as §1

[24] = molecular target: T7, YSK4 (Homo sapiens, UniProt Q56UN5)
T7 construct: gene MAP3K19
Method in brief: as §1

Sequence of PIK3CG (P48736 whole entry): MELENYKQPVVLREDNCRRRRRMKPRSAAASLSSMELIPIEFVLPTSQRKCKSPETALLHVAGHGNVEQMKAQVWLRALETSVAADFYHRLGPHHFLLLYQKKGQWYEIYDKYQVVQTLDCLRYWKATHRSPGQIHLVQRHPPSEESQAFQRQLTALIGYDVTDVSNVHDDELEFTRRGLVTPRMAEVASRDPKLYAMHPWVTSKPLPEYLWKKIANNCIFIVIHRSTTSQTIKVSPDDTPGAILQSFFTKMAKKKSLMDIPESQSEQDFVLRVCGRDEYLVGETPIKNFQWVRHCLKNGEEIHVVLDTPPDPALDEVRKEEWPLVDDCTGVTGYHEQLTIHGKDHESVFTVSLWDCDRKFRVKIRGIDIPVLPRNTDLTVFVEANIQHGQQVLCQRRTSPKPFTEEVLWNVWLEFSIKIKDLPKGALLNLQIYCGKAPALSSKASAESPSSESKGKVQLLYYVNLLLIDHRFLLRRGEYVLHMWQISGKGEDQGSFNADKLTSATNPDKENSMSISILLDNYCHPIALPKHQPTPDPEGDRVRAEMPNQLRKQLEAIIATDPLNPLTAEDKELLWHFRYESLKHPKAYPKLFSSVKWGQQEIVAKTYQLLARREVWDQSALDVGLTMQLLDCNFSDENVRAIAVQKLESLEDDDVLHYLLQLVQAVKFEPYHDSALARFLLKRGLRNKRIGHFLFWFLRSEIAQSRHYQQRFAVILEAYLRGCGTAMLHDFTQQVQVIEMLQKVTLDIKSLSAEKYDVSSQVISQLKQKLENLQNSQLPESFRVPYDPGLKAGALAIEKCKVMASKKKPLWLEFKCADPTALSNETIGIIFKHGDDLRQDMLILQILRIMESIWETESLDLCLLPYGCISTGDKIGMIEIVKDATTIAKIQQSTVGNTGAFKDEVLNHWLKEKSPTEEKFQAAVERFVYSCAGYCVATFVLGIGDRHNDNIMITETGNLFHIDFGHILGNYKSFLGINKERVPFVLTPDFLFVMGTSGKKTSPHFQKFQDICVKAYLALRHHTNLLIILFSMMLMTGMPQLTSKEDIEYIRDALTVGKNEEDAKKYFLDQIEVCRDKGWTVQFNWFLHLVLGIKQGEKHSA
Sequence of MAST1 (Q9Y2H9 whole entry): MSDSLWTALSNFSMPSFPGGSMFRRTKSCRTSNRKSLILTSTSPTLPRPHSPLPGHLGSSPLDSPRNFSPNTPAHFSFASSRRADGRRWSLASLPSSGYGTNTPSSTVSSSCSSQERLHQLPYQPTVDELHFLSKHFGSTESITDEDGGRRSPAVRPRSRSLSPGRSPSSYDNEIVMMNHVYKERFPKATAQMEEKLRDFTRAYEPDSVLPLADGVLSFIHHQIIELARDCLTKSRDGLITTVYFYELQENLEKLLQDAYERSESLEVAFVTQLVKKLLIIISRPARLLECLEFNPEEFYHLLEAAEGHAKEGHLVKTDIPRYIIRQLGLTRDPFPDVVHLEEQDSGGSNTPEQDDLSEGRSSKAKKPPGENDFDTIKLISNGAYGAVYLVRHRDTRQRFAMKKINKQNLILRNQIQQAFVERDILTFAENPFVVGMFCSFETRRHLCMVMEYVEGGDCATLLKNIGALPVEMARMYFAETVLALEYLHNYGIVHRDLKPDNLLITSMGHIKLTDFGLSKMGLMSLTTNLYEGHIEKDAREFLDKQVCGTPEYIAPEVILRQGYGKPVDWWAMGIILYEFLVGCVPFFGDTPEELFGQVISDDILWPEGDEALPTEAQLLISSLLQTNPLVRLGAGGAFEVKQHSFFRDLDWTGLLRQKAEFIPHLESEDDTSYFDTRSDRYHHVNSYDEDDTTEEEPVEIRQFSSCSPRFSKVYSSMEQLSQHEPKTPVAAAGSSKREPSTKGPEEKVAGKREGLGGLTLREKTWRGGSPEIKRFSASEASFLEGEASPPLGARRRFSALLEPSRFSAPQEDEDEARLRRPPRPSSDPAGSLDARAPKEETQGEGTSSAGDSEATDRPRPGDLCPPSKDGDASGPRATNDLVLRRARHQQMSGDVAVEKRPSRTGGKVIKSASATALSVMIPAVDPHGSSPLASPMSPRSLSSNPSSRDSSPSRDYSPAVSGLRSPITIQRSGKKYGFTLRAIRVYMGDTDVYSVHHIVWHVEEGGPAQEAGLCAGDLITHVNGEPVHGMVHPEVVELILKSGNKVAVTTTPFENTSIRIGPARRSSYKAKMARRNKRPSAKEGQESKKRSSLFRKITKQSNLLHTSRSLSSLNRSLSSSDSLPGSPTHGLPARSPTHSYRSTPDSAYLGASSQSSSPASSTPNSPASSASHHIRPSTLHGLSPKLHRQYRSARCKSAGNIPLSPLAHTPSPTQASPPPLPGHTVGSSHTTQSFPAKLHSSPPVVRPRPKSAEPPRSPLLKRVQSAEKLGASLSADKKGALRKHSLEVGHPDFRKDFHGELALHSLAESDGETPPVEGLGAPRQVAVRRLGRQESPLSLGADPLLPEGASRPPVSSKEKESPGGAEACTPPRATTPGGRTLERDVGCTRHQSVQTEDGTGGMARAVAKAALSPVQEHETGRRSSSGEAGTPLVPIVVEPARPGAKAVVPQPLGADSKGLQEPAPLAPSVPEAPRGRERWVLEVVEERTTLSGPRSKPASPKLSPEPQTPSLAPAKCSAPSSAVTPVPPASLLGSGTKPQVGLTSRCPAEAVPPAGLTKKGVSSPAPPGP
T5 sequence (Q05397 whole entry): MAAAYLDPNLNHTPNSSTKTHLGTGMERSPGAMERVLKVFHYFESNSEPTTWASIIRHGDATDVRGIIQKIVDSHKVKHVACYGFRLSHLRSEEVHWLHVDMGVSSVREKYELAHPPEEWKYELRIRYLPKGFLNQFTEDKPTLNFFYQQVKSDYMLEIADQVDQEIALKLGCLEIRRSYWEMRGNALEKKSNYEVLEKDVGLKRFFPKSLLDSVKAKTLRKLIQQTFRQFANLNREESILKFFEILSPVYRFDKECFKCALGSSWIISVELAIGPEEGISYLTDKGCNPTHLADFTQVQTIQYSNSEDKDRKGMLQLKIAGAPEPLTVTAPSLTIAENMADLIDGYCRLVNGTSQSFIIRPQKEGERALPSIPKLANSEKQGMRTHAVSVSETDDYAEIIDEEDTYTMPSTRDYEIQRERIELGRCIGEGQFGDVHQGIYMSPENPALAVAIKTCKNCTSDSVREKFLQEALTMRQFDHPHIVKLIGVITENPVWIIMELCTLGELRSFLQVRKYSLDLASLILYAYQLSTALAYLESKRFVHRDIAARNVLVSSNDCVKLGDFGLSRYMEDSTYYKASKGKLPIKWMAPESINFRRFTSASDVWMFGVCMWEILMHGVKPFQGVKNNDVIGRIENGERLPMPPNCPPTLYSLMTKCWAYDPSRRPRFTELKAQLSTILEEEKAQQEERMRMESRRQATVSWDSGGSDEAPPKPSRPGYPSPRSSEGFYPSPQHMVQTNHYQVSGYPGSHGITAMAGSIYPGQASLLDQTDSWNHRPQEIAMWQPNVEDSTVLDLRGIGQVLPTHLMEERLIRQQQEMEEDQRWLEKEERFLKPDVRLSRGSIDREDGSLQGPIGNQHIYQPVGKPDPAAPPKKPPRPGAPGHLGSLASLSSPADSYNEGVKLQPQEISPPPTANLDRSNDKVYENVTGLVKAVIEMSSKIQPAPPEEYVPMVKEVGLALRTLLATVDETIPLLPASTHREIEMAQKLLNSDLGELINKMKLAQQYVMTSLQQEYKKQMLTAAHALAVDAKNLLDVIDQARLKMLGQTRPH
T4 sequence (Q96Q40 whole entry): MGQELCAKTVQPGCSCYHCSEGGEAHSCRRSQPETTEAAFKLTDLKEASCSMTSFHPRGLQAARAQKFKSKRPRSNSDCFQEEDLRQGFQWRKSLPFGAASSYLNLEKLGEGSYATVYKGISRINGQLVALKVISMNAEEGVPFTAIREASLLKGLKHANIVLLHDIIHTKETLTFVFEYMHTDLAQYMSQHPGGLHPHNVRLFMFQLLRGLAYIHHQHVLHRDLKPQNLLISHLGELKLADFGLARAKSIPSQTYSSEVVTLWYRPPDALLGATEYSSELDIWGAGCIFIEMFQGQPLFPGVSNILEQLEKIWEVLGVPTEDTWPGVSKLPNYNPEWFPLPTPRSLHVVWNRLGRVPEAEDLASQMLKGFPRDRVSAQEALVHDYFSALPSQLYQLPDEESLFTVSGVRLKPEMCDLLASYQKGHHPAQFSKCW
Sequence of PIP5K1C (O60331 whole entry): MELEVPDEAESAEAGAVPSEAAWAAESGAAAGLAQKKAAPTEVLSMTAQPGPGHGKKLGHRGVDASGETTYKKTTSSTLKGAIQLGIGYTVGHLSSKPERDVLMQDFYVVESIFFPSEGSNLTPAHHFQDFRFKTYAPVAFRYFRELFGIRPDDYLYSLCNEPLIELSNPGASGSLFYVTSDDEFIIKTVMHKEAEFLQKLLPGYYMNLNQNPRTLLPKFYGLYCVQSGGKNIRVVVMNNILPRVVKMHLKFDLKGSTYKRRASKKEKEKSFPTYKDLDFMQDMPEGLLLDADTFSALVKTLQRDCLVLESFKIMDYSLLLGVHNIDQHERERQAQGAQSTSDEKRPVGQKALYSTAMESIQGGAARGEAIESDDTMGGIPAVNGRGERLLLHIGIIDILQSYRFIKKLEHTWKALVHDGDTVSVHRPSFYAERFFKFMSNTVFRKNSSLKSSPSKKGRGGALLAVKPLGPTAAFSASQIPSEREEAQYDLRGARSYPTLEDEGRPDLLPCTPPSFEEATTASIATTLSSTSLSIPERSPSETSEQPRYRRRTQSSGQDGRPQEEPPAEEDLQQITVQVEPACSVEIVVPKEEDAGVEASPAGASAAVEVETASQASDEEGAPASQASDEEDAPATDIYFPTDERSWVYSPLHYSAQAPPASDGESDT

**Q.** What does the source list for `CNS(=O)(=O)c1ccc(N(C)C)c(Nc2nc(C)nc3cc(OC)c(OC)cc23)c1` [compound 15, 3-((6,7-dimethoxy-2-methylquinazolin-4-yl)amino)-4-(dimethylamino)-N-methylbenzenesulfonamide]?
**A.** inhibition at 1 µM [1]: 0%; inhibition at 1 µM [2]: 18%; inhibition at 1 µM [3]: 14%; inhibition at 1 µM [4]: 0%; inhibition at 1 µM [5]: 23%; inhibition at 1 µM [6]: 9%; inhibition at 1 µM [7]: 21%; inhibition at 1 µM [8]: 10%; inhibition at 1 µM [9]: 0%; inhibition at 1 µM [10]: 3%; inhibition at 1 µM [11]: 0%; inhibition at 1 µM [12]: 18%; inhibition at 1 µM [13]: 0%; inhibition at 1 µM [14]: 22%; inhibition at 1 µM [15]: 0%; inhibition at 1 µM [16]: 0%; inhibition at 1 µM [17]: 5%; inhibition at 1 µM [18]: 0%; inhibition at 1 µM [19]: 1%; inhibition at 1 µM [20]: 0%; inhibition at 1 µM [21]: 0%; inhibition at 1 µM [22]: 0%; inhibition at 1 µM [23]: 2%; inhibition at 1 µM [24]: 0%
